Results reported in ChEMBL document CHEMBL3885861, “Open TG-GATES”.

Organism: Rattus norvegicus
Experiment: Open TG-GATES - Regimen: Daily Repeat
Type: toxicity, organism-based, Sprague-Dawley
Set-up: regimen Daily Repeat, gender Male, age 6 weeks
Conditions: in vivo, iv, 1 mg/kg, route intravenous injection, dose level High; for APTT / Bas / Eos / Fbg / Hb / Ht / Lym / MCH / MCHC / MCV / Mono / Neu / PT / Plat / RBC / Ret / WBC: tissue Blood; for KIDNEY_L / KIDNEY_R / KIDNEY_TOTAL: tissue Kidney; for LIVER: tissue Liver; for A/G / ALP / ALT / AST / BUN / CRE / Ca / Cl / DBIL / GLC / IP / K / LDH / Na / PL / RALB / TBIL / TC / TG / TP / gamma-GTP: tissue Plasma

C[C@@H]1[C@H](O)[C@@H](C)/C=C/C=C/C=C/C=C/C=C/C=C/C=C/[C@H](O[C@@H]2O[C@H](C)[C@@H](O)[C@H](N)[C@@H]2O)C[C@@H]2O[C@](O)(C[C@@H](O)C[C@@H](O)[C@H](O)CC[C@@H](O)C[C@@H](O)CC(=O)O[C@H]1C)C[C@H](O)[C@H]2C(=O)O [AMPHOTERICIN B]
TERMINAL_BW (72 h, time 3 day): 235.4 g
APTT (72 h, time 3 day): 15.8 s
Bas (72 h, time 3 day): 0%
Eos (72 h, time 3 day): 0.8%
Fbg (72 h, time 3 day): 303.4 mg/dL
Hb (72 h, time 3 day): 13.7 g/dL
Ht (72 h, time 3 day): 39.2%
Lym (72 h, time 3 day): 80.8%
MCH (72 h, time 3 day): 21.3 pg
MCHC (72 h, time 3 day): 34.8%
MCV (72 h, time 3 day): 61.1 fL
Mono (72 h, time 3 day): 2.2%
Neu (72 h, time 3 day): 15.2%
PT (72 h, time 3 day): 12.3 s
Plat (72 h, time 3 day): 136.2 x10_4/uL
RBC (72 h, time 3 day): 643 x10_4/ul
Ret (72 h, time 3 day): 4.2%
WBC (72 h, time 3 day): 106.4 x10_2/uL
KIDNEY_L (72 h, time 3 day): 1 g
KIDNEY_R (72 h, time 3 day): 1 g
KIDNEY_TOTAL (72 h, time 3 day): 2 g
LIVER (72 h, time 3 day): 10.7 g
A/G (72 h, time 3 day): 0.8
ALP (72 h, time 3 day): 1621.8 IU/L
ALT (72 h, time 3 day): 32 IU/L
AST (72 h, time 3 day): 61.2 IU/L
BUN (72 h, time 3 day): 22.6 mg/dL
CRE (72 h, time 3 day): 0.2 mg/dL
Ca (72 h, time 3 day): 10.9 mg/dL
Cl (72 h, time 3 day): 106.4 meq/L
DBIL (72 h, time 3 day): 0.018 mg/dL
GLC (72 h, time 3 day): 174.6 mg/dL
IP (72 h, time 3 day): 7.1 mg/dL
K (72 h, time 3 day): 4.1 meq/L
LDH (72 h, time 3 day): 51.8 IU/L
Na (72 h, time 3 day): 143 meq/L
PL (72 h, time 3 day): 147 mg/dL
RALB (72 h, time 3 day): 2.6 g/dL
TBIL (72 h, time 3 day): 0.05 mg/dL
TC (72 h, time 3 day): 85 mg/dL
TG (72 h, time 3 day): 94.8 mg/dL
TP (72 h, time 3 day): 5.9 g/dL
gamma-GTP (72 h, time 3 day): 1.8 IU/L
TERMINAL_BW ([…], time 7 day): 266.4 g
TERMINAL_BW ([…], time 14 day): 304.7 g
TERMINAL_BW ([…], time 28 day): 371.1 g
APTT ([…], time 7 day): 17.2 s
Bas ([…], time 7 day): 0%
Eos ([…], time 7 day): 1%
Fbg ([…], time 7 day): 287 mg/dL
Hb ([…], time 7 day): 13.6 g/dL
Ht ([…], time 7 day): 39%
Lym ([…], time 7 day): 78%
MCH ([…], time 7 day): 20.5 pg
MCHC ([…], time 7 day): 34.9%
MCV ([…], time 7 day): 58.6 fL
Mono ([…], time 7 day): 2.2%
Neu ([…], time 7 day): 18.6%
PT ([…], time 7 day): 11.9 s
Plat ([…], time 7 day): 141.2 x10_4/uL
RBC ([…], time 7 day): 665.8 x10_4/ul
Ret ([…], time 7 day): 4.7%
WBC ([…], time 7 day): 126.3 x10_2/uL
APTT ([…], time 14 day): 16.6 s
Bas ([…], time 14 day): 0.4%
Eos ([…], time 14 day): 0.8%
Fbg ([…], time 14 day): 281.6 mg/dL
Hb ([…], time 14 day): 14.4 g/dL
Ht ([…], time 14 day): 40.7%
Lym ([…], time 14 day): 82.8%
MCH ([…], time 14 day): 20.3 pg
MCHC ([…], time 14 day): 35.4%
MCV ([…], time 14 day): 57.2 fL
Mono ([…], time 14 day): 1.6%
Neu ([…], time 14 day): 14.2%
PT ([…], time 14 day): 12.5 s
Plat ([…], time 14 day): 122.8 x10_4/uL
RBC ([…], time 14 day): 711.2 x10_4/ul
Ret ([…], time 14 day): 4.1%
WBC ([…], time 14 day): 116.3 x10_2/uL
APTT ([…], time 28 day): 19.3 s
Bas ([…], time 28 day): 1%
Eos ([…], time 28 day): 1%
Fbg ([…], time 28 day): 322.5 mg/dL
Hb ([…], time 28 day): 15.1 g/dL
Ht ([…], time 28 day): 42.9%
Lym ([…], time 28 day): 80.8%
MCH ([…], time 28 day): 18.9 pg
MCHC ([…], time 28 day): 35.2%
MCV ([…], time 28 day): 53.8 fL
Mono ([…], time 28 day): 2.2%
Neu ([…], time 28 day): 14.5%
PT ([…], time 28 day): 12.9 s
Plat ([…], time 28 day): 127.8 x10_4/uL
RBC ([…], time 28 day): 798.8 x10_4/ul
Ret ([…], time 28 day): 2.8%
WBC ([…], time 28 day): 135.7 x10_2/uL
KIDNEY_L ([…], time 7 day): 1.2 g
KIDNEY_R ([…], time 7 day): 1.1 g
KIDNEY_TOTAL ([…], time 7 day): 2.3 g
KIDNEY_L ([…], time 14 day): 1.2 g
KIDNEY_R ([…], time 14 day): 1.2 g
KIDNEY_TOTAL ([…], time 14 day): 2.5 g
KIDNEY_L ([…], time 28 day): 1.4 g
KIDNEY_R ([…], time 28 day): 1.3 g
KIDNEY_TOTAL ([…], time 28 day): 2.7 g
LIVER ([…], time 7 day): 12.5 g
LIVER ([…], time 14 day): 12.9 g
LIVER ([…], time 28 day): 14.4 g
A/G ([…], time 7 day): 0.8
ALP ([…], time 7 day): 1417.8 IU/L
ALT ([…], time 7 day): 29.8 IU/L
AST ([…], time 7 day): 57.2 IU/L
BUN ([…], time 7 day): 22.4 mg/dL
CRE ([…], time 7 day): 0.2 mg/dL
Ca ([…], time 7 day): 11.2 mg/dL
Cl ([…], time 7 day): 105.2 meq/L
DBIL ([…], time 7 day): 0.018 mg/dL
GLC ([…], time 7 day): 177.8 mg/dL
IP ([…], time 7 day): 6.7 mg/dL
K ([…], time 7 day): 4.4 meq/L
LDH ([…], time 7 day): 57.4 IU/L
Na ([…], time 7 day): 143.2 meq/L
PL ([…], time 7 day): 145.6 mg/dL
RALB ([…], time 7 day): 2.6 g/dL
TBIL ([…], time 7 day): 0.044 mg/dL
TC ([…], time 7 day): 77 mg/dL
TG ([…], time 7 day): 138.6 mg/dL
TP ([…], time 7 day): 6 g/dL
gamma-GTP ([…], time 7 day): 1.2 IU/L
A/G ([…], time 14 day): 0.8
ALP ([…], time 14 day): 1437.6 IU/L
ALT ([…], time 14 day): 31.6 IU/L
AST ([…], time 14 day): 63 IU/L
BUN ([…], time 14 day): 27.2 mg/dL
CRE ([…], time 14 day): 0.2 mg/dL
Ca ([…], time 14 day): 10.8 mg/dL
Cl ([…], time 14 day): 105 meq/L
DBIL ([…], time 14 day): 0.016 mg/dL
GLC ([…], time 14 day): 183.2 mg/dL
IP ([…], time 14 day): 6.7 mg/dL
K ([…], time 14 day): 4.6 meq/L
LDH ([…], time 14 day): 54 IU/L
Na ([…], time 14 day): 142.8 meq/L
PL ([…], time 14 day): 149.8 mg/dL
RALB ([…], time 14 day): 2.6 g/dL
TBIL ([…], time 14 day): 0.048 mg/dL
TC ([…], time 14 day): 75.6 mg/dL
TG ([…], time 14 day): 132.8 mg/dL
TP ([…], time 14 day): 6 g/dL
gamma-GTP ([…], time 14 day): 1 IU/L
A/G ([…], time 28 day): 0.6
ALP ([…], time 28 day): 1068.2 IU/L
ALT ([…], time 28 day): 30.2 IU/L
AST ([…], time 28 day): 60.2 IU/L
BUN ([…], time 28 day): 26.8 mg/dL
CRE ([…], time 28 day): 0.2 mg/dL
Ca ([…], time 28 day): 10.9 mg/dL
Cl ([…], time 28 day): 106 meq/L
DBIL ([…], time 28 day): 0.0175 mg/dL
GLC ([…], time 28 day): 178 mg/dL
IP ([…], time 28 day): 6.1 mg/dL
K ([…], time 28 day): 4 meq/L
LDH ([…], time 28 day): 52.8 IU/L
Na ([…], time 28 day): 145.2 meq/L
PL ([…], time 28 day): 128.8 mg/dL
RALB ([…], time 28 day): 2.6 g/dL
TBIL ([…], time 28 day): 0.06 mg/dL
TC ([…], time 28 day): 63.2 mg/dL
TG ([…], time 28 day): 105 mg/dL
TP ([…], time 28 day): 6.4 g/dL
gamma-GTP ([…], time 28 day): 1.2 IU/L
